Molecular target: T1, human fascin 1 (Homo sapiens, UniProt Q16658)
T1 construct: GST (N, cleaved yes); made in house; host or cells: Escherichia coli BL21/DE3 (pGEX4T-fascin 1 plasmid)
Test: Fascin inhibition (actin bundling) assay, image-based
Assay type: biochemical
Settings: in the presence of 50 μm of the compound relative to bundle activity when the compound was not present; read-out: Inhibition (percentage reduction of bundle activity)
How it was run: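 GST-tagged human fascin 1 from E. coli, thrombin-cleaved, was preincubated with compounds for 30 min, then polymerized actin was added; compounds were at 30 μM final. Bundles captured on poly-D-lysine plates were imaged, and background-corrected bundle length per well was computed, with DMSO-only wells as negative controls.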

inhibition at 50 µM [%]	SMILES
< 10	Nc1nn(Cc2ccc(C(F)(F)F)cc2)c2cccc(Cl)c12 [Compound 116, 4-chloro-1-(4-(trifluoromethyl)benzyl)-1H-indazol-3-amine]
< 10	N#Cc1ccc2c(c1)c(N)nn2Cc1ccc(C(F)(F)F)nc1 [Compound 97, 3-amino-1-((6-(trifluoromethyl)pyridin-3-yl)methyl)-1H-indazole-5-carbonitrile]
< 10	O=C(Nc1nn(Cc2cccc(C(F)(F)F)c2)c2ccccc12)c1ccoc1 [Compound 48, N-(1-(3-(trifluoromethyl)benzyl)-1H-indazol-3-yl)furan-3-carboxamide]
< 10	O=C(Nc1nn(Cc2ccc(C(F)(F)F)cc2)c2ccccc12)c1ccccc1F [Compound 12, 2-fluoro-N-(1-(4-(trifluoromethyl)benzyl)-1H-indazol-3-yl)benzamide]
10	Cc1occc1-c1nn(Cc2ccc(C(F)(F)F)cc2)c2ccccc12 [Compound 148, 3-(2-methylfuran-3-yl)-1-(4-(trifluoromethyl)benzyl)-1H-indazole]
10	O=C(Nc1nn(Cc2ccc(C(F)(F)F)cc2)c2ccccc12)c1ccc(Cl)cc1 [Compound 6, 4-chloro-N-(1-(4-(trifluoromethyl)benzyl)-1H-indazol-3-yl)benzamide]
< 10	Cc1ccc2c(NC(=O)c3conc3C)nn(Cc3ccc(C(F)(F)F)cc3)c2n1 [Compound 133, 3-methyl-N-(6-methyl-1-(4-(trifluoromethyl)benzyl)-1H-pyrazolo[3,4-b]pyridin-3-yl)isoxazole-4-carboxamide]
< 10	Cc1ccc(Cn2nc(NC(=O)c3scnc3C)c3ccccc32)cc1 [Compound 82, 4-methyl-N-(1-(4-methylbenzyl)-1H-indazol-3-yl)thiazole-5-carboxamide]
< 10	O=C(Nc1nn(Cc2ccc(C(F)(F)F)cc2)c2ccccc12)c1cc(Cl)ccn1 [Compound 18]
< 10	N#Cc1ccc2c(c1)c(NC(=O)c1ccoc1)nn2Cc1ccc(C(F)(F)F)nc1 [Compound 98, N-(5-cyano-1-((6-(trifluoromethyl)pyridin-3-yl)methyl)-1H-indazol-3-yl)furan-3-carboxamide]
< 10	N#Cc1ccc(Cn2nc(NC(=O)c3ccoc3)c3ccccc32)cc1 [Compound 85, N-(1-(4-cyanobenzyl)-1H-indazol-3-yl)furan-3-carboxamide]
< 10	O=C(Nc1nn(Cc2ccc(C(F)(F)F)cc2)c2ccccc12)c1ccccc1Br [Compound 46, 2-bromo-N-(1-(4-(trifluoromethyl)benzyl)-1H-indazol-3-yl)benzamide]
< 10	Cc1occc1C(=O)Nc1nn(Cc2ccc(C(F)(F)F)cc2)c2cccc(Cl)c12 [Compound 119, N-(4-chloro-1-(4-(trifluoromethyl)benzyl)-1H-indazol-3-yl)-2-methylfuran-3-carboxamide]
80	Cc1ncoc1C(=O)Nc1nn(Cc2ccc(C(F)(F)F)cc2)c2ccccc12 [Compound 34, 4-methyl-N-(1-(4-(trifluoromethyl)benzyl)-1H-indazol-3-yl)oxazole-5-carboxamide]
50	O=C(Nc1nn(Cc2ccc(Cl)cc2)c2ccccc12)c1ccoc1 [Compound 64, N-(1-(4-chlorobenzyl)-1H-indazol-3-yl)furan-3-carboxamide]
< 10	O=C(Nc1nn(Cc2ccc(C(F)(F)F)cc2)c2cc(C(F)(F)F)ccc12)c1ccoc1 [Compound 107, N-(6-(trifluoromethyl)-1-(4-(trifluoromethyl)benzyl)-1H-indazol-3-yl)furan-3-carboxamide]
< 10	Cc1ccc(Cn2nc(NC(=O)c3cccnn3)c3ccccc32)cc1 [Compound 83, N-(1-(4-methylbenzyl)-1H-indazol-3-yl)pyridazine-3-carboxamide]

inhibition at 50 µM [%]	SMILES
80	Cc1cnoc1C(=O)Nc1nn(Cc2ccc(C(F)(F)F)cc2)c2ccccc12 [Compound 28, 4-methyl-N-(1-(4-(trifluoromethyl)benzyl)-1H-indazol-3-yl)isoxazole-5-carboxamide]
< 10	O=C(Nc1nn(Cc2ccc(C(F)(F)F)cc2)c2ccccc12)c1cccc(Cl)n1 [Compound 8, 6-chloro-N-(1-(4-(trifluoromethyl)benzyl)-1H-indazol-3-yl)picolinamide]
10	FC(F)(F)c1ccc(Cn2nc(Br)c3ccccc32)cc1 [Compound 143, 3-Bromo-1-(4-(trifluoromethyl)benzyl)-1H-indazole]
< 10	Nc1nn(Cc2ccc(Cl)cc2)c2ccccc12 [Compound 63, 1-(4-chlorobenzyl)-1H-indazol-3-amine]
< 10	Cc1nocc1C(=O)Nc1nn(Cc2ccc(C#N)cc2)c2ccccc12 [Compound 86, N-(1-(4-cyanobenzyl)-1H-indazol-3-yl)-3-methylisoxazole-4-carboxamide]
< 10	O=C(Nc1nn(Cc2ccc(C(F)(F)F)cc2)c2ccccc12)c1csc(Cl)n1 [Compound 24, 2-chloro-N-(1-(4-(trifluoromethyl)benzyl)-1H-indazol-3-yl)thiazole-4-carboxamide]
100	Nc1nn(Cc2ccc(C(F)(F)F)cc2)c2cncc(Cl)c12 [Compound 137, 4-chloro-1-(4-(trifluoromethyl)benzyl)-1H-pyrazolo[3,4-c]pyridin-3-amine]
< 10	O=C(Nc1nn(Cc2ccc(C(F)(F)F)cc2)c2ccccc12)c1ccc(F)cc1 [Compound 13]
< 10	O=C(Nc1nn(Cc2ccc(C(F)(F)F)cc2)c2ccccc12)c1cccc(F)c1F [Compound 20, 2,3-difluoro-N-(1-(4-(trifluoromethyl)benzyl)-1H-indazol-3-yl)benzamide]
< 10	Cc1ccc(Cn2nc(NC(=O)c3ccoc3C)c3ccccc32)cc1 [Compound 81, 2-methyl-N-(1-(4-methylbenzyl)-1H-indazol-3-yl)furan-3-carboxamide]
< 10	Cc1ccoc1C(=O)Nc1nn(Cc2ccc(C(F)(F)F)cc2)c2ccccc12 [Compound 29, 3-methyl-N-(1-(4-(trifluoromethyl)benzyl)-1H-indazol-3-yl)furan-2-carboxamide]
< 10	O=C(Nc1nn(Cc2ccc(C(F)(F)F)cc2)c2ccccc12)c1cscn1 [Compound 30, N-(1-(4-(trifluoromethyl)benzyl)-1H-indazol-3-yl)thiazole-4-carboxamide]
< 10	Nc1nn(Cc2ccc(C(F)(F)F)cc2)c2ccccc12 [Compound 59, 1-(4-(trifluoromethyl)benzyl)-1H-indazol-3-amine]
< 10	Nc1nn(Cc2ccc(F)cc2)c2ccccc12 [Compound 70, 1-(4-fluorobenzyl)-1H-indazol-3-amine]
100	O=C(Nc1nn(Cc2ccc(C(F)(F)F)cc2)c2ccccc12)c1cnco1 [Compound 40, N-(1-(4-(trifluoromethyl)benzyl)-1H-indazol-3-yl)oxazole-5-carboxamide]
< 10	O=C(Nc1nn(Cc2ccc(C(F)(F)F)cc2)c2ccccc12)c1cnc[nH]1 [Compound 26, N-(1-(4-(trifluoromethyl)benzyl)-1H-indazol-3-yl)-1H-imidazole-5-carboxamide]
